# Experimental data from ChEMBL document CHEMBL5107949, “Design, synthesis, and antibacterial activity of N-(trifluoromethyl)phenyl substituted pyrazole derivatives” (RSC Med Chem, 2021).
# Activity calls are given as the source filed them. The calls are words filed in the database; no cut-off is given here.
# Experiments:
# Staphylococcus aureus [1] = test: Inhibition of protein synthesis in Staphylococcus aureus ATCC 29213 at 8 times MIC preincubated for 30 mins followed by [3H]-leucine and measured after 40 mins by [3H]-leucine incorporation based beta scintillation counter analysis; type: functional; settings: time 70.0 min
# Staphylococcus aureus [2] = test: Bactericidal activity against Staphylococcus aureus ATCC 700699 persisters assessed as log reduction in colony forming unit at 32 times MIC measured for 4 hrs by time kill assay; type: functional
# Staphylococcus aureus [3] = test: Antibacterial activity against antibiotic resistant Staphylococcus aureus BAA-2312 assessed as inhibition of bacterial growth by CLSI protocol based broth microdilution method; type: functional
# Staphylococcus aureus [4] = test: Antibacterial activity against antibiotic resistant Staphylococcus aureus ATCC 33591 assessed as inhibition of bacterial growth by CLSI protocol based broth microdilution method; type: functional
# Enterococcus faecalis [5] = test: Antibacterial activity against antibiotic susceptible Enterococcus faecalis ATCC 29212 assessed as inhibition of bacterial growth by CLSI protocol based broth microdilution method; type: functional
# Staphylococcus aureus [6] = test: Anti-biofilm activity against Staphylococcus aureus ATCC 25923 assessed as eradication of biofilm formation incubated for 24 hrs by Calgary biofilm device assay; type: functional
# Staphylococcus aureus [7] = test: Inhibition of biofilm formation in Staphylococcus aureus ATCC 25923 at 3.125 to 12.5 ug/ml incubated for 24 hrs by Calgary biofilm device assay; type: functional, organism-based; settings: dose 3.125-12.5 µg/ml, DDE = dose-dependent effect
# Enterococcus faecalis [8] = test: Anti-biofilm activity against Enterococcus faecalis ATCC 29212 assessed as minimum bactericidal concentration incubated for 24 hrs by Calgary biofilm device assay; settings: ATCC 29212, 24 h
# Staphylococcus aureus [9] = test: Bactericidal activity against Staphylococcus aureus ATCC 700699 persisters assessed as log reduction in colony forming unit at 16 times MIC measured for 4 hrs by time kill assay; type: functional
# Staphylococcus aureus [10] = test: Bactericidal activity against Staphylococcus aureus ATCC 700699 persisters assessed as log reduction in colony forming unit at 2 to 32 times MIC measured for 4 hrs by time kill assay; type: functional, organism-based; settings: DDE = dose-dependent effect
# Enterococcus faecalis [11] = test: Inhibition of biofilm formation in Enterococcus faecalis ATCC 29212 at 12.5 ug/ml incubated for 24 hrs by Calgary biofilm device assay; type: functional
# Enterococcus faecalis [12] = test: Anti-biofilm activity against Enterococcus faecalis ATCC 29212 assessed as eradication of biofilm formation incubated for 24 hrs by Calgary biofilm device assay; type: functional
# [13] = Cytotoxicity against human HEK293 cells reduction in cell viability incubated for 24 hrs by resazurin cell viability assay; type: toxicity, cell-based
# Staphylococcus aureus [14] = test: Antibacterial activity against antibiotic resistant Staphylococcus aureus ATCC 33592 assessed as inhibition of bacterial growth by CLSI protocol based broth microdilution method; type: functional
# Enterococcus faecalis [15] = test: Anti-biofilm activity against Enterococcus faecalis ATCC 29212 assessed as biofilm eradication at 3.125 to 12.5 ug/ml incubated for 24 hrs by Calgary biofilm device assay; type: functional, organism-based; settings: dose 3.125-12.5 µg/ml
# Staphylococcus aureus [16] = test: Bactericidal activity against Staphylococcus aureus ATCC 700699 assessed as bacteria elimination at 4 times MIC and measured after 6 hrs by time-kill assay; type: functional
# Staphylococcus aureus [17] = test: Bactericidal activity against Staphylococcus aureus ATCC 700699 persisters assessed as log reduction in colony forming unit at 16 times MIC after 4 hrs by colony counting method; type: functional
# Staphylococcus aureus [18] = test: Antibacterial activity against antibiotic susceptible Staphylococcus aureus ATCC 25923 assessed as inhibition of bacterial growth by CLSI protocol based broth microdilution method; type: functional
# Staphylococcus aureus [19] = test: Antibacterial activity against antibiotic resistant Staphylococcus aureus ATCC 700699 assessed as inhibition of bacterial growth by CLSI protocol based broth microdilution method; type: functional
# Enterococcus faecium [20] = test: Antibacterial activity against vancomycin resistant Enterococcus faecium ATCC 700221 assessed as inhibition of bacterial growth by CLSI protocol based broth microdilution method; type: functional
# [21] = system: Staphylococcus epidermidis; test: Antibacterial activity against antibiotic resistant Staphylococcus epidermidis ATCC 700296 assessed as inhibition of bacterial growth by CLSI protocol based broth microdilution method; type: functional
# Bacillus subtilis = test: Antibacterial activity against antibiotic resistant Bacillus subtilis ATCC 6623 assessed as inhibition of bacterial growth by CLSI protocol based broth microdilution method; type: functional
# Staphylococcus aureus [22] = test: Antibacterial activity against Staphylococcus aureus ATCC 25923 assessed as minimum bactericidal concentration incubated for 24 hrs by Calgary biofilm device assay; settings: ATCC 25923, 24 h
# Staphylococcus aureus [23] = test: Bactericidal activity against Staphylococcus aureus ATCC 700699 persisters assessed as log reduction in colony forming unit at 64 times MIC after 4 hrs by colony counting method; type: functional, organism-based
# Enterococcus faecium [24] = test: Antibacterial activity against Enterococcus faecium clinical isolate 1088228 assessed as inhibition of bacterial growth by CLSI protocol based broth microdilution method; type: functional
# Staphylococcus aureus [25] = test: Antibacterial activity against Staphylococcus aureus clinical isolate 1088626 assessed as inhibition of bacterial growth by CLSI protocol based broth microdilution method; type: functional
# Staphylococcus aureus [26] = test: Antibacterial activity against Staphylococcus aureus clinical isolate 1088064 assessed as inhibition of bacterial growth by CLSI protocol based broth microdilution method; type: functional
# Enterococcus faecium [27] = test: Antibacterial activity against Enterococcus faecium clinical isolate 1089544 assessed as inhibition of bacterial growth by CLSI protocol based broth microdilution method; type: functional
# Enterococcus faecalis [28] = test: Antibacterial activity against Enterococcus faecalis clinical isolate 1091563 assessed as inhibition of bacterial growth by CLSI protocol based broth microdilution method; type: functional
# Enterococcus faecalis [29] = test: Antibacterial activity against Enterococcus faecalis clinical isolate 1100440 assessed as inhibition of bacterial growth by CLSI protocol based broth microdilution method; type: functional
# Staphylococcus aureus [30] = test: Antibacterial activity against Staphylococcus aureus clinical isolate 1088105 assessed as inhibition of bacterial growth by CLSI protocol based broth microdilution method; type: functional
# Staphylococcus aureus [31] = test: Antibacterial activity against Staphylococcus aureus clinical isolate 1088610 assessed as inhibition of bacterial growth by CLSI protocol based broth microdilution method; type: functional
# Enterococcus faecium [32] = test: Antibacterial activity against Enterococcus faecium clinical isolate 1091282 assessed as inhibition of bacterial growth by CLSI protocol based broth microdilution method; type: functional
# Staphylococcus aureus [33] = test: Antibacterial activity against Staphylococcus aureus clinical isolate 1088060 assessed as inhibition of bacterial growth by CLSI protocol based broth microdilution method; type: functional
# Enterococcus faecalis [34] = test: Antibacterial activity against Enterococcus faecalis clinical isolate 1091720 assessed as inhibition of bacterial growth by CLSI protocol based broth microdilution method; type: functional
# Enterococcus faecalis [35] = test: Antibacterial activity against Enterococcus faecalis clinical isolate 1094112 assessed as inhibition of bacterial growth by CLSI protocol based broth microdilution method; type: functional
# Staphylococcus aureus [36] = test: Antibacterial activity against Staphylococcus aureus clinical isolate 1088888 assessed as inhibition of bacterial growth by CLSI protocol based broth microdilution method; type: functional
# Enterococcus faecium [37] = test: Antibacterial activity against Enterococcus faecium clinical isolate 1088168 assessed as inhibition of bacterial growth by CLSI protocol based broth microdilution method; type: functional
# Staphylococcus aureus [38] = test: Antibacterial activity against Staphylococcus aureus clinical isolate 1089106 assessed as inhibition of bacterial growth by CLSI protocol based broth microdilution method; type: functional
# Enterococcus faecium [39] = test: Antibacterial activity against Enterococcus faecium clinical isolate 1088925 assessed as inhibition of bacterial growth by CLSI protocol based broth microdilution method; type: functional
# Enterococcus faecalis [40] = test: Antibacterial activity against Enterococcus faecalis clinical isolate 1088051 assessed as inhibition of bacterial growth by CLSI protocol based broth microdilution method; type: functional
# HEK293 = test: Cytotoxicity against human HEK293 cells reduction in cell viability at 74 ug/ml incubated for 24 hrs by resazurin cell viability assay; type: toxicity, cell-based; settings: hek293, 24 h, at 74 µg/mL
molecule,measurement,setting,value
CC(=O)NC[C@H]1CN(c2ccc(N3CCOCC3)c(F)c2)C(=O)O1,inhibition,Staphylococcus aureus [1],70.7%
O=C(O)c1ccc(-c2nn(-c3ccc(C(F)(F)F)cc3)cc2CNc2ccc(Oc3ccccc3)cc2)cc1,log(activity),Staphylococcus aureus [2],3
same,MIC,Staphylococcus aureus [3],3.12 µg/mL
same,MIC,Staphylococcus aureus [4],3.12 µg/mL
same,MIC,Enterococcus faecalis [5],3.12 µg/mL
same,MBEC,Staphylococcus aureus [6],6.25 µg/mL
same,inhibition,Staphylococcus aureus [7],Dde
same,MBC,Enterococcus faecalis [8],12.5 µg/mL
same,log(activity),Staphylococcus aureus [9],3
same,Activity,Staphylococcus aureus [10],Dde
same,inhibition at 12.5 µg/mL,Enterococcus faecalis [11],100%
same,MBEC,Enterococcus faecalis [12],12.5 µg/mL
same,IC50 at 24 h,[13],23.5 µg/mL
same,MIC,Staphylococcus aureus [14],1.56 µg/mL
same,Activity,Enterococcus faecalis [15],Active
same,Activity,Staphylococcus aureus [16],>99.9%
same,log(activity),Staphylococcus aureus [17],>2
same,MIC,Staphylococcus aureus [18],1.56 µg/mL
same,MIC,Staphylococcus aureus [19],1.56 µg/mL
same,MIC,Enterococcus faecium [20],1.56 µg/mL
same,MIC,[21],3.12 µg/mL
same,MIC,Bacillus subtilis,1.56 µg/mL
same,MBC,Staphylococcus aureus [22],3.12 µg/mL
CC(C)(C)c1ccc(NCc2cn(-c3ccc(C(F)(F)F)cc3)nc2-c2ccc(C(=O)O)cc2)cc1,MIC,Staphylococcus aureus [3],3.12 µg/mL
same,MIC,Staphylococcus aureus [4],3.12 µg/mL
same,MIC,Enterococcus faecalis [5],3.12 µg/mL
same,IC50 at 24 h,[13],8 µg/mL
same,MIC,Staphylococcus aureus [14],1.56 µg/mL
same,MIC,Staphylococcus aureus [18],1.56 µg/mL
same,MIC,Staphylococcus aureus [19],1.56 µg/mL
same,MIC,Enterococcus faecium [20],1.56 µg/mL
same,MIC,[21],3.12 µg/mL
same,MIC,Bacillus subtilis,1.56 µg/mL
GENTAMICIN,log(activity),Staphylococcus aureus [23],1
same,Activity,Staphylococcus aureus [16],> 99.9%
C[C@@H](O)[C@H]1C(=O)N2C(C(=O)O)=C(S[C@@H]3CN[C@H](C(=O)N(C)C)C3)[C@H](C)[C@H]12 [MEROPENEM],MIC,Enterococcus faecium [24],> 128 µg/mL
same,MIC,Staphylococcus aureus [25],0.06 µg/mL
same,MIC,Staphylococcus aureus [26],4 µg/mL
same,MIC,Enterococcus faecium [27],> 128 µg/mL
same,MIC,Enterococcus faecalis [28],2 µg/mL
same,MIC,Enterococcus faecalis [29],4 µg/mL
same,MIC,Staphylococcus aureus [30],0.12 µg/mL
same,MIC,Staphylococcus aureus [31],4 µg/mL
same,MIC,Enterococcus faecium [32],> 128 µg/mL
same,MIC,Staphylococcus aureus [33],0.06 µg/mL
same,MIC,Enterococcus faecalis [34],8 µg/mL
same,MIC,Enterococcus faecalis [35],8 µg/mL
same,MIC,Staphylococcus aureus [36],8 µg/mL
same,MIC,Enterococcus faecium [37],> 128 µg/mL
same,MIC,Staphylococcus aureus [38],2 µg/mL
same,MIC,Enterococcus faecium [39],> 128 µg/mL
same,MIC,Enterococcus faecalis [40],2 µg/mL
CC/C(=C(\c1ccccc1)c1ccc(OCCN(C)C)cc1)c1ccccc1 [TAMOXIFEN],Activity,HEK293,100%
O=C(O)c1ccc(-c2nn(-c3ccc(C(F)(F)F)cc3)cc2CNc2ccc(F)c(Cl)c2)cc1,MIC,Staphylococcus aureus [3],6.25 µg/mL
same,MIC,Staphylococcus aureus [4],12.5 µg/mL
same,MIC,Enterococcus faecalis [5],12.5 µg/mL
same,MIC,Staphylococcus aureus [14],3.12 µg/mL
same,MIC,Staphylococcus aureus [18],3.12 µg/mL
same,MIC,Staphylococcus aureus [19],3.12 µg/mL
same,MIC,Enterococcus faecium [20],6.25 µg/mL
same,MIC,[21],12.5 µg/mL
same,MIC,Bacillus subtilis,3.12 µg/mL
